In ChEMBL document CHEMBL1201862, “PubChem BioAssay data set” (2004):
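These data come from cells grown in 96-well plates and exposed to compound for 48 hours at five concentrations. At the GI50, growth is halved.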 Activity calls are given as the source filed them. Cut-off read from the data, not from the text of the source: active = GI50 up to about 1.1 µM and inactive = higher.

What was measured:
Experiment in all cases: growth of human tumour cells (NCI), 48 h
NCI-H522 = system: NCI-H522
SK-MEL-5 = system: SK-MEL-5
RPMI-8226 = system: RPMI-8226
EKVX = system: EKVX
KM12 = system: KM12
OVCAR-3 = system: OVCAR-3
SW-620 = system: SW-620
HOP-92 = system: HOP-92
NCI-H460 = system: NCI-H460
A549 = system: A549
UO-31 = system: UO-31
OVCAR-4 = system: OVCAR-4
SK-MEL-28 = system: SK-MEL-28
MOLT-4 = system: MOLT-4
COLO 205 = system: COLO 205
786-0 = system: 786-0
SK-MEL-2 = system: SK-MEL-2
SN12C = system: SN12C

Measured: GI50

COC(=O)CCC(=O)N1CC1C (centres undefined)
inactive: NCI-H522 > 100 µM | SK-MEL-5 > 100 µM | RPMI-8226 > 100 µM | EKVX > 100 µM | KM12 > 100 µM | OVCAR-3 > 100 µM | SW-620 > 100 µM | HOP-92 > 100 µM | NCI-H460 > 100 µM | A549 > 100 µM | UO-31 > 100 µM | OVCAR-4 > 100 µM | SK-MEL-28 > 100 µM | MOLT-4 > 100 µM | COLO 205 > 100 µM | 786-0 > 100 µM | SK-MEL-2 > 100 µM | SN12C > 100 µM

CCOC(=O)N1CCC(=O)C[C@@H]1C/C=C/P1(=O)O[C@H](c2ccccc2)C(C)N1C(C)C (some centres undefined)
inactive: NCI-H522 > 100 µM | SK-MEL-5 > 100 µM | RPMI-8226 > 100 µM | EKVX > 100 µM | KM12 > 100 µM | OVCAR-3 > 100 µM | SW-620 > 100 µM | HOP-92 > 100 µM | A549 > 100 µM | UO-31 > 100 µM | OVCAR-4 > 100 µM | SK-MEL-28 > 100 µM | MOLT-4 > 100 µM | 786-0 > 100 µM | SK-MEL-2 > 100 µM | SN12C > 100 µM

Cc1c(Cl)cccc1NC(=O)C(=O)C1C(=O)NC(=O)NC1=O
inactive: NCI-H522 > 100 µM | SK-MEL-5 > 100 µM | RPMI-8226 > 100 µM | EKVX > 100 µM | KM12 > 100 µM | OVCAR-3 > 100 µM | SW-620 > 100 µM | HOP-92 > 100 µM | NCI-H460 > 100 µM | A549 > 100 µM | UO-31 > 100 µM | OVCAR-4 > 100 µM | SK-MEL-28 > 100 µM | MOLT-4 > 100 µM | COLO 205 > 100 µM | 786-0 > 100 µM | SK-MEL-2 > 100 µM | SN12C > 100 µM

CS/C(C)=N/OC(=O)NCCCCNc1ccc(N=[N+]=[N-])cc1
inactive: NCI-H522 4.76 µM | SK-MEL-5 16.7 µM | RPMI-8226 18.4 µM | EKVX 45.4 µM | KM12 29.5 µM | OVCAR-3 27.7 µM | SW-620 58.5 µM | HOP-92 55.3 µM | NCI-H460 35 µM | A549 30.4 µM | UO-31 20.7 µM | OVCAR-4 42.9 µM | SK-MEL-28 49.7 µM | MOLT-4 28.4 µM | COLO 205 36.1 µM | 786-0 76.7 µM | SN12C 59.2 µM

C[S+]([O-])c1ccc(COP(N)(=O)N(CCCl)CCCl)cc1 (centres undefined)
inactive: NCI-H522 > 100 µM | SK-MEL-5 > 100 µM | RPMI-8226 > 100 µM | EKVX > 100 µM | KM12 > 100 µM | OVCAR-3 > 100 µM | SW-620 > 100 µM | HOP-92 > 100 µM | NCI-H460 > 100 µM | A549 > 100 µM | UO-31 > 100 µM | OVCAR-4 > 100 µM | SK-MEL-28 > 100 µM | MOLT-4 > 100 µM | COLO 205 > 100 µM | 786-0 > 100 µM | SK-MEL-2 > 100 µM | SN12C > 100 µM

COCCNC(=O)C1C(=O)N(CCOC)C(=O)/C1=N/N (centres undefined)
inactive: NCI-H522 > 100 µM | RPMI-8226 > 100 µM | EKVX > 100 µM | KM12 > 100 µM | OVCAR-3 > 100 µM | SW-620 > 100 µM | HOP-92 > 100 µM | A549 > 100 µM | UO-31 > 100 µM | SK-MEL-28 > 100 µM | MOLT-4 > 100 µM | 786-0 > 100 µM | SK-MEL-2 > 100 µM | SN12C > 100 µM

BrC12c3ccccc3Sc3ccccc3C1(Br)c1ccccc12 (centres undefined)
inactive: NCI-H522 17.5 µM | SK-MEL-5 16.2 µM | RPMI-8226 13.5 µM | KM12 19.9 µM | SW-620 36.2 µM | HOP-92 19.8 µM | NCI-H460 40.2 µM | A549 27.7 µM | UO-31 33 µM | OVCAR-4 33.1 µM | MOLT-4 10.7 µM | COLO 205 28.8 µM | 786-0 34.5 µM | SK-MEL-2 15.8 µM | SN12C 25.8 µM

COc1ccc([C@@H]2CC(=O)N2)cc1
inactive: NCI-H522 > 100 µM | SK-MEL-5 > 100 µM | RPMI-8226 > 100 µM | EKVX > 100 µM | KM12 > 100 µM | HOP-92 > 100 µM | NCI-H460 > 100 µM | A549 > 100 µM | UO-31 > 100 µM | OVCAR-4 > 100 µM | SK-MEL-28 > 100 µM | MOLT-4 > 100 µM | COLO 205 > 100 µM | 786-0 > 100 µM | SK-MEL-2 > 100 µM | SN12C > 100 µM

NC1=NC(Cn2nc(-c3ccccc3)c3ccccc3c2=O)=NNC(=O)N1
inactive: NCI-H522 > 100 µM | SK-MEL-5 > 100 µM | RPMI-8226 > 100 µM | KM12 > 100 µM | OVCAR-3 > 100 µM | SW-620 > 100 µM | HOP-92 > 100 µM | NCI-H460 > 100 µM | A549 > 100 µM | UO-31 > 100 µM | OVCAR-4 > 100 µM | SK-MEL-28 > 100 µM | MOLT-4 > 100 µM | COLO 205 > 100 µM | 786-0 > 100 µM | SK-MEL-2 > 100 µM | SN12C > 100 µM
